The results in this text go back to ChEMBL document CHEMBL1201862, “PubChem BioAssay data set” (2004).

The EC50 is the midpoint of the concentration-response curve. What is called IC50 is the concentration at which inhibition is half-maximal.

Activity calls are given as the source filed them.

The target in assay [1] is Cytochrome P450 2D6 (Homo sapiens, UniProt P10635). In words: qHTS Assay for Inhibitors and Substrates of Cytochrome P450 2D6. [Related pubchem assays: 410 ]. The class given is ADME. The settings on record: read-out: Potency. (qHTS replaces the single test concentration by a dilution series.)
Assay [2] has as its target T1, Alkaline phosphatase, tissue-nonspecific isozyme (Homo sapiens, UniProt P05186).
T1 sequence (P05186 whole entry): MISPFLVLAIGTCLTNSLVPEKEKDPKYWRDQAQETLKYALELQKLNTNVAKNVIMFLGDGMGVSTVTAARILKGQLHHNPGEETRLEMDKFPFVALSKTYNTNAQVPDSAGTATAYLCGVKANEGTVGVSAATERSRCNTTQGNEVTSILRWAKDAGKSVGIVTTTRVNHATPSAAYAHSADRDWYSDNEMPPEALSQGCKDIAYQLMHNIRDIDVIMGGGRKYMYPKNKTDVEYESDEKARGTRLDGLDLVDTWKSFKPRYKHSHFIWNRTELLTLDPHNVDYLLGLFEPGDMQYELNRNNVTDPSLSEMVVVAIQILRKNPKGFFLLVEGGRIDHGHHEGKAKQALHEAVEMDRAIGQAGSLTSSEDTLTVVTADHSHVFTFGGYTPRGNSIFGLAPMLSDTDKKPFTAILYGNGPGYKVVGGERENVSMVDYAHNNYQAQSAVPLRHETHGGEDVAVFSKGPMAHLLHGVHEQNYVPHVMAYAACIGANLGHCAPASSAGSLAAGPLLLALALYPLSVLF

A short description of assay [3]: CCR5-tropic HIV-1 fusion blockers – cell-based, CCR5-tropic Env, dose response (AID 2279). The class given is functional.
The target in assay [4] is Peroxisome proliferator-activated receptor gamma/Nuclear receptor coactivator 2 (Homo sapiens, UniProt P37231). The class given is functional.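 Note: agonist potency for raising coactivator recruitment to the receptor.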
The target in assay [5] is Peroxisome proliferator-activated receptor gamma/Nuclear receptor coactivator 1 (Homo sapiens, UniProt P37231). The class given is functional.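 Note: agonist potency as compounds enhance coactivator SRC-1 recruitment to PPARgamma.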
The target in assay [6] is Peroxisome proliferator-activated receptor gamma/Nuclear receptor coactivator 3 (Homo sapiens, UniProt P37231). The class given is functional.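 Note: agonist potency for raising coactivator recruitment to the receptor.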
In assay [7] the target is T2, Leucine aminopeptidase (Plasmodium falciparum 3D7, UniProt Q8IL11).
T2 sequence (Q8IL11 whole entry): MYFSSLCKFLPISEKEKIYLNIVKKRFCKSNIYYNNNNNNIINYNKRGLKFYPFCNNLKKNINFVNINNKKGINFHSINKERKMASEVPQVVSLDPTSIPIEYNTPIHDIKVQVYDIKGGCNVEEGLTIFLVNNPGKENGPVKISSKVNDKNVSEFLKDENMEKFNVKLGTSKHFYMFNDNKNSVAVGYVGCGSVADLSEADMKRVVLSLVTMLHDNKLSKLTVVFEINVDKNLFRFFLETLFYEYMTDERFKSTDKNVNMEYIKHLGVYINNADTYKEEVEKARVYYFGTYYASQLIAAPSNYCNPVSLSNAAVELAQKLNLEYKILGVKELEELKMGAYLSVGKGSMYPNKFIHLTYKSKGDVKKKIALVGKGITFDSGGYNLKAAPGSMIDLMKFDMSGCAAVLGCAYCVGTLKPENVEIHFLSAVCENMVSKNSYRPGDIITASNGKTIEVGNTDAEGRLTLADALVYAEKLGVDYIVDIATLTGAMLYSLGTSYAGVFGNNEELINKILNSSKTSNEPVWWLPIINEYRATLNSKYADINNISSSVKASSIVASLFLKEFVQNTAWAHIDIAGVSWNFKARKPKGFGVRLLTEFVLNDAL
In words: P. falciparum M17LAP inhibitors, primary screen, biochemical, fluorogenic H-Leu-NHMec substrate, 1536-well (AID 1619). The class given is functional.

Assay [8] in a line: mitochondrial function rescue without frataxin homolog – Friedreich's ataxia, plus single-dose screen, dose response (AID 1465).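 Note: yeast depleted of Yfh1p frataxin homolog grown on glycerol needing respiration; WST-1 tetrazolium dye reduction as measure of cellular dehydrogenase metabolic activity.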 The class given is functional.
For assay [9], the target named is T3, Potassium voltage-gated channel subfamily KQT member 2 (Rattus norvegicus, UniProt O88943). In words: Mode of action assay - current amplitude concentration response for derivatives of ZTZ240, a potentiator of KCNQ2 potassium channels. [Related pubchem assays: 2258 (Summary assay for the KCNQ2 potentiators.), 2239 (Primary HTS assay for KCNQ2 potentiators with 305606 compounds tested, and 1644 are found to be active.)]. The class given is functional.

Assay [10] deals with T3, Potassium voltage-gated channel subfamily KQT member 2. In words: Mode of action - deactivation constant concentration response for ztz240, a potentiator of KCNQ2 potassium channels. [Related pubchem assays: 2258 (Summary assay for the KCNQ2 potentiators.), 2239 (Primary HTS assay for KCNQ2 potentiators with 305606 compounds tested, and 1644 are found to be active.)]. The class given is functional.

In assay [11] the target is Aspartyl aminopeptidase (Plasmodium falciparum 3D7, UniProt Q8I2J3).
Assay [12] deals with Procathepsin L (Homo sapiens, UniProt P07711).
Assay [13] has as its target Ras and Rab interactor 1/Tyrosine-protein kinase ABL1 (Homo sapiens, UniProt P00519+Q13671). The class given is functional.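 Note: biochemical TR-FRET dose-response test measuring inhibition of binding between Rin1 and Abl proteins.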
The target in assay [14] is T4, Histone-lysine N-methyltransferase NSD2 (Homo sapiens, UniProt O96028).
T4 sequence (O96028 whole entry): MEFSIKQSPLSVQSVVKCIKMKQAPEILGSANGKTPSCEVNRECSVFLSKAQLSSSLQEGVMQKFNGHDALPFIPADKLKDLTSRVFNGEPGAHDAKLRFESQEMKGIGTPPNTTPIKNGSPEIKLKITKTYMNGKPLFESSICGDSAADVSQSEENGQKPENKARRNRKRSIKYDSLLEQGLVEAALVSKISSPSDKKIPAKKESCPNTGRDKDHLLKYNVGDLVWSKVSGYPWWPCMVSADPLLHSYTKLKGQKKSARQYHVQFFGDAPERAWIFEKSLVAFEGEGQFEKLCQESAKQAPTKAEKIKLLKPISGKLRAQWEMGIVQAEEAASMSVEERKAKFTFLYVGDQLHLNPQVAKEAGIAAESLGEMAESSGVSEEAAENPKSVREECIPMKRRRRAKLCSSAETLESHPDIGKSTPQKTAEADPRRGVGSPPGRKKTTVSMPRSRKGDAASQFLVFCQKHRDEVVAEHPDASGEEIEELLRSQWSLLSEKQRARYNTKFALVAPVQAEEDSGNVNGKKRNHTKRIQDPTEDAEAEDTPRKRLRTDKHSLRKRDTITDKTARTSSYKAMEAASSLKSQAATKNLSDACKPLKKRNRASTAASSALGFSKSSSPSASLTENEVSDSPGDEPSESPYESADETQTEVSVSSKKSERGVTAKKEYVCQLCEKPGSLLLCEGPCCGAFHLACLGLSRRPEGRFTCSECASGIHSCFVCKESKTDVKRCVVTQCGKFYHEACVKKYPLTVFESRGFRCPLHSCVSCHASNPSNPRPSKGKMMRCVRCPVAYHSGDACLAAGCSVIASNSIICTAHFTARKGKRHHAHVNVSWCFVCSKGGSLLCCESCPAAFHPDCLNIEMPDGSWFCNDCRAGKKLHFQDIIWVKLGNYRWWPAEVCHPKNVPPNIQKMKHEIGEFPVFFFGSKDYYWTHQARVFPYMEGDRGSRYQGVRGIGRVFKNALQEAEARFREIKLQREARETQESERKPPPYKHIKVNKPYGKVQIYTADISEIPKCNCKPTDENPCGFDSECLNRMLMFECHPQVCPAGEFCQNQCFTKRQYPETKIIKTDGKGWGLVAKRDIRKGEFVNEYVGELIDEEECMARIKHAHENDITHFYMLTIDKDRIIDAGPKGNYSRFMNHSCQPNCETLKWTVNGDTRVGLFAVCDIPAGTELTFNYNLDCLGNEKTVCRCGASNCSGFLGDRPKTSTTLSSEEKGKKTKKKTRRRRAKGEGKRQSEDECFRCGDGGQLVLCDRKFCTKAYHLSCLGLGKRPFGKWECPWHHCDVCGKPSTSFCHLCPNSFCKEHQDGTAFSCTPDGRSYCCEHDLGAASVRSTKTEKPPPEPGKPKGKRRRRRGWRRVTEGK
The class given is biochemical.

The target in assay [15] is T5, Protein Tat (Human immunodeficiency virus type 1 group M subtype B (isolate HXB2)(HIV-1), UniProt P04608).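 Note: tat binding to TAR RNA read out by fluorescence polarization.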
T5 sequence (P04608 whole entry): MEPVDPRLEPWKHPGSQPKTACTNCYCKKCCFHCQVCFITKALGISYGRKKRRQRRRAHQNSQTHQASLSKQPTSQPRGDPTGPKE
The class given is functional.

Assay [16] can be described thus: cells.
Assay [17] concerns HEK293. In words: Fluorescence-based counterscreen for potentiators or agonists of NPY-Y2: cell-based high-throughput dose response assay to identify inhibitors of cyclic nucleotide gated ion channel (CNGC) activity. In this assay, the parental HEK293 cell line transfected with a cyclic-nucleotide gated ion channel (CNGC)-based cAMP sensor is used to measure inhibition of isoproterenol-induced CNGC activity by test compound. The class given is functional. The settings on record: Homo sapiens. (Counterscreens check selectivity or assay interference.);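 note: stimulus is 1 µM isoproterenol at EC100 plus PDE inhibitor Ro 20-1724 at 25 µM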

Assay [18] concerns the target Neuropeptide Y receptor type 2 (Homo sapiens, UniProt P49146). In words: Fluorescence-based cell-based high-throughput dose response assay for agonists of NPY-Y2. [Related pubchem assays: 1703 (Screening assay (CNGC inhibitors).), 1359 (Screening assay (NPY-Y2 potentiators or agonists).), 1304 (Screening assay (NPY-Y1 potentiators or agonists).), 1710 (Screening assay (NPY-Y2 agonists).), 1791 (Summary AID.)]. The class given is functional.

Assay [19] addresses Neuropeptide Y receptor type 1 (Homo sapiens, UniProt P25929). In words: Fluorescence-based counterscreen for agonists of NPY-Y2: cell-based high-throughput dose response assay for agonists of NPY-Y1. The class given is functional.
Assay [20] relates to Streptococcus. In words: Luminescence Microorganism-Based Dose Response Follow up to Identify Compounds Cytotoxic to Streptococcus. [Related pubchem assays: 1677 (Project Summary), 1915, 1914, 1902 (Retest at Dose), 1900 (Counter Screen), 1662 (Primary HTS)]. The class given is functional, organism-based.

T3 sequence (O88943 whole entry): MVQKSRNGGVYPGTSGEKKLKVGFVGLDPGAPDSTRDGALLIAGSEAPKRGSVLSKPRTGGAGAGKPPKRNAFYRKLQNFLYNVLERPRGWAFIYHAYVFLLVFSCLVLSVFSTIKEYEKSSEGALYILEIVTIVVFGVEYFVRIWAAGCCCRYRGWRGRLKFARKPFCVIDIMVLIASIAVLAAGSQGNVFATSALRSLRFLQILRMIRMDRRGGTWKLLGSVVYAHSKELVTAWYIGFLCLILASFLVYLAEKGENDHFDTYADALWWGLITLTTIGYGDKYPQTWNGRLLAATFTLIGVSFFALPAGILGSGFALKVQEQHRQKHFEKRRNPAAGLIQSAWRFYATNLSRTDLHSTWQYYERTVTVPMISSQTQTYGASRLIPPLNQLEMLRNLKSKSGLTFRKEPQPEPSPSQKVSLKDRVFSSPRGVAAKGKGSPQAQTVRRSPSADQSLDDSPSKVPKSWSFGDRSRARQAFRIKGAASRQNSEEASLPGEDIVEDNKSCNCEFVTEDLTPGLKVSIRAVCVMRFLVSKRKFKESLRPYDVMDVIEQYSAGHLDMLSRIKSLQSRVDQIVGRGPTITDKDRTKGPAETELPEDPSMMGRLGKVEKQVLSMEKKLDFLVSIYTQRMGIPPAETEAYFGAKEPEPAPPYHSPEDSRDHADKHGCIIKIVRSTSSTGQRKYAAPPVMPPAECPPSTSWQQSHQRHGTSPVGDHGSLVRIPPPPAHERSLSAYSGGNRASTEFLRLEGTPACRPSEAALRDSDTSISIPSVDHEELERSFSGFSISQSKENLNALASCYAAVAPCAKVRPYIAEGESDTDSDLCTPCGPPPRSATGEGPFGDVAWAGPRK
Chain of Neuropeptide Y receptor type 1 (P25929 whole entry): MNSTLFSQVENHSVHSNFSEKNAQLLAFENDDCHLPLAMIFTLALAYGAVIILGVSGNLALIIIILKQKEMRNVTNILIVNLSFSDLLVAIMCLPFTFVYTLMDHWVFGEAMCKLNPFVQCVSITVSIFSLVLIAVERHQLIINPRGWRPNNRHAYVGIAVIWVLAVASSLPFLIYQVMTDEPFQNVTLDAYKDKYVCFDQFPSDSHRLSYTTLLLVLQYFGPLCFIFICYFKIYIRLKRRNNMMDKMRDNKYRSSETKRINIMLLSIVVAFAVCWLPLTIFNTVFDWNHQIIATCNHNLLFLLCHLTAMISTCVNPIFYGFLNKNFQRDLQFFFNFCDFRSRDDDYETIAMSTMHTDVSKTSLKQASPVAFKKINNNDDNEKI
Chain of Neuropeptide Y receptor type 2 (P49146 whole entry): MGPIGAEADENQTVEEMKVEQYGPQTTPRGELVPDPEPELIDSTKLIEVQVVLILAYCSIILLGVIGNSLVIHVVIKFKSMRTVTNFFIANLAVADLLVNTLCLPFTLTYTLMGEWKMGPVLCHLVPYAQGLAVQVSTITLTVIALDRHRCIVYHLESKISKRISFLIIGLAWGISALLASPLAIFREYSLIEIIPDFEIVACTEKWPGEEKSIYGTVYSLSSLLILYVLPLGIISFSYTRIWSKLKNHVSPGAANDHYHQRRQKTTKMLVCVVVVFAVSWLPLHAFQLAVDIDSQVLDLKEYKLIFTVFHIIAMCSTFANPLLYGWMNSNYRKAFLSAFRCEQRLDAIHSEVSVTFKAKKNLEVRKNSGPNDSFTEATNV
Chain of Procathepsin L (P07711 whole entry): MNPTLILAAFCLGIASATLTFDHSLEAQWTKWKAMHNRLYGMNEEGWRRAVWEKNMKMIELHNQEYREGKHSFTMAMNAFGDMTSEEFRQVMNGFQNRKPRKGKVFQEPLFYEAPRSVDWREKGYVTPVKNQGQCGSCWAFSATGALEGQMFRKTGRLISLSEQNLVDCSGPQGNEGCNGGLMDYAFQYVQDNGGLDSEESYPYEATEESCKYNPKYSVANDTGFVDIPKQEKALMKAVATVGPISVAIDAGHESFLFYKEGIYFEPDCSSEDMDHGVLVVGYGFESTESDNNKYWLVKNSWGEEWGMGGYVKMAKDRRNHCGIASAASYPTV
Chain of Ras and Rab interactor 1/Tyrosine-protein kinase ABL1 (P00519 whole entry): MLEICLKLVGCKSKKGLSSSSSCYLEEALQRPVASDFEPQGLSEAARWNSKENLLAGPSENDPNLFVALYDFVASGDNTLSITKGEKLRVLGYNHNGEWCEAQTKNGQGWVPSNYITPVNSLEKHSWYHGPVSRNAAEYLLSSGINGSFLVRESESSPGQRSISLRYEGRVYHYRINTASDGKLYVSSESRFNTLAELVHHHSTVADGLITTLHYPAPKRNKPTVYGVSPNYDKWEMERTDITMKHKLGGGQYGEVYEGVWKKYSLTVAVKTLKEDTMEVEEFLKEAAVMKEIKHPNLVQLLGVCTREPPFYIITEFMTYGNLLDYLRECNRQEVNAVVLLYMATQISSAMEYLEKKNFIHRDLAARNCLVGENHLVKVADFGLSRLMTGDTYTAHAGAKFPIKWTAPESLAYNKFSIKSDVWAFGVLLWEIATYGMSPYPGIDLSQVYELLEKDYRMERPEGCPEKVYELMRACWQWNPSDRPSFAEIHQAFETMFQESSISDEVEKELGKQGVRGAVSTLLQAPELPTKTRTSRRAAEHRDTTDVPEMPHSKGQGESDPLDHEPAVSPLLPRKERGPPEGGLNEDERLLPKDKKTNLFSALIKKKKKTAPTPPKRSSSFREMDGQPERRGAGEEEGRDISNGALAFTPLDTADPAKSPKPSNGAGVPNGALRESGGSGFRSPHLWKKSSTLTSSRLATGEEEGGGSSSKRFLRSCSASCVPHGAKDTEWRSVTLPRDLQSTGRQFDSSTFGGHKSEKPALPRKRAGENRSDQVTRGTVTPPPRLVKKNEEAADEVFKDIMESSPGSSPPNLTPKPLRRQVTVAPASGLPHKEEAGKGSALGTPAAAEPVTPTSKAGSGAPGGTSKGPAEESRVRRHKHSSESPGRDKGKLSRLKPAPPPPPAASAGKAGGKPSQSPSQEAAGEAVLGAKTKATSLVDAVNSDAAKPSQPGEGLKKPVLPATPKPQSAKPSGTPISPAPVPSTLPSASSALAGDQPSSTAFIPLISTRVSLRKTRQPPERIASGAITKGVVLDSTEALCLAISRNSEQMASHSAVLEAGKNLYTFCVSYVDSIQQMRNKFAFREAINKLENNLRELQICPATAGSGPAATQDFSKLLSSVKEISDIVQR
Chain of Ras and Rab interactor 1/Tyrosine-protein kinase ABL1 (Q13671 whole entry): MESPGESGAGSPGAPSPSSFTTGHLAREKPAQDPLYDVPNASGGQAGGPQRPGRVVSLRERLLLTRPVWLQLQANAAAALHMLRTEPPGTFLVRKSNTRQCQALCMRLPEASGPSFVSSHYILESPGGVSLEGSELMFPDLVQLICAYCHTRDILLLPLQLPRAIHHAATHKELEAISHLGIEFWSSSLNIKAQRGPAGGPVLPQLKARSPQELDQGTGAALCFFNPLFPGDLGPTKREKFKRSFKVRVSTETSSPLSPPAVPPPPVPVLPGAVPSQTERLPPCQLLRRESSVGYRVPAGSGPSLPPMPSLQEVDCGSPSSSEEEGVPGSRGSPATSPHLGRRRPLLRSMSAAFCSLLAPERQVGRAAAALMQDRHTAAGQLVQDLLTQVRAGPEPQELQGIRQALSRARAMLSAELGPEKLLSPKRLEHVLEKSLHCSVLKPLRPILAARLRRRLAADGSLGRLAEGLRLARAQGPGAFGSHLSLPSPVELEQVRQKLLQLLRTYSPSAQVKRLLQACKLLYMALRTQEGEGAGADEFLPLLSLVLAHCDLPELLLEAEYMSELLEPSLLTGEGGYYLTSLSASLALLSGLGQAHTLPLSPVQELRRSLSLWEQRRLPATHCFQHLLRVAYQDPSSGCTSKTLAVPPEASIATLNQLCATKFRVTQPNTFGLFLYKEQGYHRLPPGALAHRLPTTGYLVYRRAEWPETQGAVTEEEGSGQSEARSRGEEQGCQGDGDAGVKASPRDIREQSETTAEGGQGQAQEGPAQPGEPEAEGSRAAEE
Chain of Cytochrome P450 2D6 (P10635 whole entry): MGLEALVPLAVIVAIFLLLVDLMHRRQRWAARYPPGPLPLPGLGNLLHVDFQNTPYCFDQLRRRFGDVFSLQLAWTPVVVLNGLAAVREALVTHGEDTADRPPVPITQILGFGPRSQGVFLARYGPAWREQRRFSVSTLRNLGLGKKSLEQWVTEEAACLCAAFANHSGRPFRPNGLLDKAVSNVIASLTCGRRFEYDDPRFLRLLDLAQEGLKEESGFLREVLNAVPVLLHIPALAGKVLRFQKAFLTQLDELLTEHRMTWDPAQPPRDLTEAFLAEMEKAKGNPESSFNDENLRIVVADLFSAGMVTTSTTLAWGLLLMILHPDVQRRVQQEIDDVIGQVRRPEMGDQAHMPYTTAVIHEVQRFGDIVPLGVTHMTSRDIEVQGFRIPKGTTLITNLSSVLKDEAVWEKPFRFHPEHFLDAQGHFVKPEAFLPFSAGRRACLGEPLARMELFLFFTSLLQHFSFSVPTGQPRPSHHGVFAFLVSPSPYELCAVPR
Chain of Aspartyl aminopeptidase (Q8I2J3 whole entry): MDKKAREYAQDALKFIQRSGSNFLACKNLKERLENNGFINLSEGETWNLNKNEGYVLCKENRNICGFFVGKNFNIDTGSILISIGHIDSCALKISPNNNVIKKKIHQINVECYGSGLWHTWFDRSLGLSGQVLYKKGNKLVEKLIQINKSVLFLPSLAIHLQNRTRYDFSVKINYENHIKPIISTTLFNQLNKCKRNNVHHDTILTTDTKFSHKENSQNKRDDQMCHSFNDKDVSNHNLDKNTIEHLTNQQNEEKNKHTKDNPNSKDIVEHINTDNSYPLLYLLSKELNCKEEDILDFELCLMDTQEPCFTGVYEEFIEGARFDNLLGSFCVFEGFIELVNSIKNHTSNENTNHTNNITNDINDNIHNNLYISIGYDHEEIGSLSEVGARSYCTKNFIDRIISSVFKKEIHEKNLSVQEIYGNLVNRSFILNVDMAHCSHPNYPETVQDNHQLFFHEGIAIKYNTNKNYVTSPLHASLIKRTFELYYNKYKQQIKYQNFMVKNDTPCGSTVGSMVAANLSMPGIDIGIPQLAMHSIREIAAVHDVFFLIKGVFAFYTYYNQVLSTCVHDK

With `CC12C=C(/C=C/CCc3ccco3)C(C)(C1)C(CCc1ccco1)CC2=O` (stereo not given), the AC50 in [1] is 6.31 µM (inconclusive).
Regarding `Cc1ccc(C)n1-c1ccc(C(=O)NN)s1`, the 50% effective concentration (EC50) in assay [2] was > 100 µM (not active).
Turning to `O=C1/C(=C\c2ccc(O)c(O)c2)C(c2ccccc2)=NN1c1ccccc1`, the concentration for half-maximal inhibition (IC50) in [3] is 27.1 µM (active).
In the case of `CCOC(=O)c1c(C)[nH]c(C(=O)COC(=O)CNC(=O)C2CCCCC2)c1C`, the EC50 in assay [4], in assay [5] and in assay [6] was > 79.4 µM (not active) throughout.
In the case of `N#C/C(=C/c1ccc(N2CCOCC2)o1)C(=O)NC1CCCCC1`, the half-inhibitory concentration (IC50) in assay [7] was 109 µM (active). Moreover, the EC50 in assay [8] is > 100 µM (active).
Turning to `O=C(Nc1ccc(Cl)nc1)c1ccc(F)cc1`, the EC50 is 1.46 µM (active) in [9] and 5.9 µM (active) in assay [10].
Turning to `O=C(/C=C/c1ccc(O)c(O)c1)OC1C(O)CC(OC(=O)/C=C/c2ccc(O)c(O)c2)(C(=O)O)CC1O` (stereo not given), the half-inhibitory concentration (IC50) is 1.94 µM (active) in assay [11]; > 59.6 µM (not active) in assay [12]; 18.9 µM (inactive) in assay [13]; 85.2 µM (inconclusive) in [15]; 31.9 µM (active) in assay [16]. Further, in assay [14], the AC50 is 5.43 µM (active).
In the case of `O=C(N/N=C/c1ccc(OC(F)F)cc1)c1cccc(S(=O)(=O)N2CCOCC2)c1`, the EC50 in [17], in assay [18] and in assay [19] was > 35.4 µM (not active) each time.
As for `Cc1ccc(C(=O)N2c3ccccc3Sc3ccccc32)cc1`, the EC50 in assay [20] is recorded as > 500 µM (not active).
